15 compounds from patent publication US20250084101A1, “COMPOUND FOR INHIBITING AND DEGRADING IRAK4, AND PHARMACEUTICAL COMPOSITION AND PHARMACEUTICAL APPLICATION THEREOF” (XIZANG HAISCO PHARMACEUTICAL CO., LTD., priority 2022, published 2025) can be followed below.

For data set [1], the target named is T1, IRAK4 protein (Homo sapiens, UniProt Q9NWZ3).
T1 construct: endogenous in cells; host or cells: human peripheral blood mononuclear cells (hPBMC) from healthy volunteers
T1 sequence (Q9NWZ3 1-460): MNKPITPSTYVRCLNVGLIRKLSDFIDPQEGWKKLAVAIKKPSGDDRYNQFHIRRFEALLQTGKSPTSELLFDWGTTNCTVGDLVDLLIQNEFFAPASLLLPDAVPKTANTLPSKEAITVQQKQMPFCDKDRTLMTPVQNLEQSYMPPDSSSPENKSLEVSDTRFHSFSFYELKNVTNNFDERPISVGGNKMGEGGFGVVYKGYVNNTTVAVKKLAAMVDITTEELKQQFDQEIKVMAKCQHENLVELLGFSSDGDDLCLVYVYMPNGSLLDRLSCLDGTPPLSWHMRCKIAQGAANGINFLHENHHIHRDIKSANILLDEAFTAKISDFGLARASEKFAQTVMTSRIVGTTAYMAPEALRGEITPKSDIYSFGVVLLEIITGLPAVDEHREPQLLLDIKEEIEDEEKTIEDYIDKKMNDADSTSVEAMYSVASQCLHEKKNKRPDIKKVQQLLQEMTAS
The data set is described as follows: IRAK4 degradation activity in hPBMC cells (24 hours). Particulars: for Remaining IRAK4 protein IRAK4%: 100 nM, relative to vehicle control. It is filed as cell-based. Here is the method:
hPBMC cells are human peripheral blood mononuclear cells. Peripheral venous blood was taken from healthy volunteers, and hPBMCs were isolated using Ficoll density gradient centrifugation (Ficoll-Paque™ PLUS 1.077, GE, Cat. 17-1140-02). Culture conditions: RPMI-1640+10% FBS+1% penicillin-streptomycin solution. The cells were cultured in an incubator at 37° C. and 5% CO2. The cells were plated in a 24-well plate at 1×10^6 cells/well. After plating, compounds at different concentrations were added, and the cells were cultured in an incubator at 37° C. and 5% CO2 for 24 hours. After the culture was completed, the cells were collected, and RIPA lysis buffer (beyotime, Cat. P0013B) was added. The cells were lysed on ice for 20 minutes, and then centrifuged at 12000 rpm at 4° C. for 10 minutes. The protein sample of the supernatant was collected, the protein was quantified using a BCA kit (Beyotime, Cat. P0009), and then the protein was diluted to 1 mg/mL. The expression of IRAK4 (CST, Cat. 4363S) and the internal reference cofilin (CST, Cat. 5175S) were detected using a fully automated western blot quantitative analyzer (Proteinsimple). The expression level of IRAK4 relative to the internal reference was calculated using compass software. The remaining IRAK4 protein IRAK4% relative to the vehicle control group at different doses was calculated using formula (1), and the IRAK4 protein degradation relative to the vehicle control group at different doses was calculated using formula (2), where IRAK4administration was the expression level of IRAK4 in the administration groups at different doses, and IRAK4vehicle was the expression level of IRAK4 in the vehicle control group. An IRAK4 degradation-drug concentration curve was fit using Graphpad Prism 8 software, and the DC50 was calculated.

Data set [2] addresses T2, hERG potassium ion channel (Homo sapiens, UniProt Q12809).
T2 construct: expressed in transfected cells; host or cells: CHO (Chinese hamster ovary) cells stably expressing hERG
As to the kind of experiment: Effect on hERG potassium ion channel (manual patch-clamp, CHO cells). In kind it is cell-based. To be noted: CHO cells stably expressing hERG, whole cell patch-clamp. An excerpt:
Experimental platform: electrophysiological manual patch-clamp system
Cell line: Chinese hamster ovary (CHO) cell line stably expressing hERG potassium ion channel
Experimental method: In CHO (Chinese Hamster Ovary) cells stably expressing hERG potassium channel, whole cell patch-clamp technique was used to record hERG potassium channel current at room temperature. The glass microelectrode was made of a glass electrode blank (BF150-86-10, Sutter) by a puller. The tip resistance after filling the liquid in the electrode was about 2-5 MQ. The glass microelectrode can be connected to the patch-clamp amplifier by inserting the glass microelectrode into an amplifier probe. The clamping voltage and data recording were controlled and recorded by the pClamp 10 software through a computer. The sampling frequency was 10 kHz, and the filtering frequency was 2 kHz. After the whole cell records were obtained, the cells were clamped at −80 mV, and the step voltage that induced the hERG potassium current (lhERG) was depolarized from −80 mV to +20 mV for 2 s, then repolarized to −50 mV, and returned to −80 mV after 1 s. This voltage stimulation was given every 10 s, and the administration process was started after the hERG potassium current was confirmed to be stable (at least 1 minute). The compound was administered for at least 1 minute at each test concentration, and at least 2 cells (n≥2) were tested at each concentration.
Data processing: Data analysis processing was carried out by using pClamp 10, GraphPad Prism 5 and Excel software. The inhibition degree of hERG potassium current (peak value of hERG tail current induced at −50 mV) at different compound concentrations was calculated by the following formula:
[formula] • where Inhibition % represents the percentage of inhibition of hERG potassium current by the compound, and l and lo represent the amplitude of hERG potassium current after and before the administration, respectively.
Compound IC50 was calculated using GraphPad Prism 5 software by fitting according to the following equation:
[formula] • where X represents the Log value of the tested concentration of the test sample, Y represents the inhibition percentage at the corresponding concentration, and Bottom and Top represent the minimum and maximum inhibition percentage, respectively.
(In general: hERG is a cardiac potassium channel; its block is linked to QT prolongation.)

A short description of data set [3]: Pharmacokinetic test in mice. In kind it is in vivo, ICR mice. To be noted: male, ICR, mouse, plasma, po, 10 mg/kg, i.g. 10 mg/kg, read-out: AUC0-t. The protocol:
Experimental animals: Male ICR mice, about 25 g, 6 mice/compound, purchased from Chengdu Ddossy Experimental Animals Co., Ltd.
Test design: On the day of the experiment, 6 ICR mice were randomly grouped according to their body weights. The animals were fasted with water available for 12 to 14 h one day before the administration, and were fed 4 h after the administration.
• Vehicle for intravenous administration: 5% DMA+5% Solutol+90% Saline; • Vehicle for intragastric administration: 5% DMSO+30% PEG400+65% (20% SBE-CD); (DMSO: dimethyl sulfoxide; DMA: dimethylacetamide; Solutol: polyethylene glycol-15-hydroxystearate; PEG400: polyethylene glycol 400; SBE-β-CD: sulfobutyl-β-cyclodextrin; Saline: physiological saline)
Before and after the administration, 0.15 mL of blood was taken from the orbit of the animals under isoflurane anesthesia and placed in an EDTAK2 centrifuge tube. The blood was centrifuged at 5000 rpm and 4° C. for 10 min to collect plasma. The blood collection time points for the intravenous administration group and intragastric administration group were 0 min, 5 min, 15 min, 30 min, 1 h, 2 h, 4 h, 7 h and 24 h. Before analysis and detection, all samples were stored at −60° C. The samples were analyzed quantitatively by LC-MS/MS.

Setting [4] is: read-out: IC50 for inhibitory effect on hERG potassium channel current.

Where a name gives a salt, the structure may show the parent alone. Read-outs that look alike come from different tables or passages of the source.

T2 sequence (Q12809 whole entry): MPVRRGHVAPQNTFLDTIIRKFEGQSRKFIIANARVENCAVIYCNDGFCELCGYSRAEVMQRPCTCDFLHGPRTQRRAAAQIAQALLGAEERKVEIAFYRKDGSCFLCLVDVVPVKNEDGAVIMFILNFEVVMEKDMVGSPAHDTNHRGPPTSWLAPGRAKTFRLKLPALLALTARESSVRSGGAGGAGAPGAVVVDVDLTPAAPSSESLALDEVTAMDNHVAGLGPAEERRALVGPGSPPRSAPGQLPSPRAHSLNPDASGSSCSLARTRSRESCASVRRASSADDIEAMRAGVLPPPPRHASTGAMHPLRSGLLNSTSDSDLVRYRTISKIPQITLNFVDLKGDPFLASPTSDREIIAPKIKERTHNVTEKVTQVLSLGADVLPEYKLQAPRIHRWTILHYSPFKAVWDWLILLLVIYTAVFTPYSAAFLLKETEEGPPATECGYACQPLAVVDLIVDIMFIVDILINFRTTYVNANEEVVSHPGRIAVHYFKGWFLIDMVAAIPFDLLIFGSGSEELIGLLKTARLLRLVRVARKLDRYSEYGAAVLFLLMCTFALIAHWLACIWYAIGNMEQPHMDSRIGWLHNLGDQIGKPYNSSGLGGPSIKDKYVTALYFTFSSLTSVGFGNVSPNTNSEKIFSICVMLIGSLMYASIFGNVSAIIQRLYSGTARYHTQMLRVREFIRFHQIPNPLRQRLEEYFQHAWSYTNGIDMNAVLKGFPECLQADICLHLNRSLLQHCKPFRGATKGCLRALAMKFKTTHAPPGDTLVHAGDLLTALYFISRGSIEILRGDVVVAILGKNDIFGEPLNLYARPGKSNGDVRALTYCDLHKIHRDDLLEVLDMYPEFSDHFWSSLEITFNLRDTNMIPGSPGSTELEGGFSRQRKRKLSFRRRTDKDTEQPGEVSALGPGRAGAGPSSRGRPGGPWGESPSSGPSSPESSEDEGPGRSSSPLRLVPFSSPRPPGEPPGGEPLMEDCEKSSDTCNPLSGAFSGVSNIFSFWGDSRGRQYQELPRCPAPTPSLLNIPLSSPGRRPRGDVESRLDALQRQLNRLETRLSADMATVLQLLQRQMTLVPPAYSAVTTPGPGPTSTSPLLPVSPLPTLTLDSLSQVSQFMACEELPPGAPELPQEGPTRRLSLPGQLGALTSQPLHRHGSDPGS

`[2H]C([2H])([2H])n1nc(C2CCC(=O)NC2=O)c2cccc(C#CCOC3CCN(C[C@H]4CC[C@H](n5cc(NC(=O)c6cnn7ccc(N8C[C@H]9C[C@@H]8CO9)nc67)c(C(F)F)n5)CC4)CC3)c21` (relative stereo) [Compound 7, Trans-5-((1R,4R)-2-oxa-5-azabicyclo[2.2.1]heptan-5-yl)-N-(3-(difluoromethyl)-1-(4-((4-((3-(3-(2,6-dioxopiperidin-3-yl)-1-(methyl-d3)-1H-indazol-7-yl)prop-2-yn-1-yl)oxy)piperidin-1-yl)methyl)cyclohexyl)-1H-pyrazol-4-yl) pyrazolo[1,5-a]pyrimidine-3-carboxamide]: the “Remaining IRAK4 protein IRAK4%” value in data set [1] is “A (A ≤ 10%)”. On the same count and under the same terms, then `CC(C)n1nc(C2CCC(=O)NC2=O)c2cccc(C#CCOC3CCN(C[C@H]4CC[C@H](n5cc(NC(=O)c6cnn7ccc(N8C[C@H]9C[C@@H]8CO9)nc67)c(C(F)F)n5)CC4)CC3)c21` (single isomer, unassigned) [Chiral isomer 1 of compound 8], with “B (10% < B ≤ 50%)”. As for `Cn1nc(C2CCC(=O)NC2=O)c2cccc(C#CCO[C@H]3CCN(C[C@H]4CC[C@H](n5cc(NC(=O)c6cnn7ccc(N8CCO[C@@H](CO)C8)nc67)c(C(F)F)n5)CC4)C[C@H]3F)c21` (single isomer, unassigned) [Chiral isomer 1 of compound 24], the DC50 in data set [1] was below 0.02 µM. In addition, the IC50 in data set [2] (setting [4]) was above 40 µM.

`Cn1nc(C2CCC(=O)NC2=O)c2cccc(C#CCO[C@H]3CCN(C[C@H]4CC[C@H](n5cc(NC(=O)c6cnn7ccc(N8CCO[C@H](CO)C8)nc67)c(C(F)F)n5)CC4)C[C@H]3F)c21` (single isomer, unassigned) [Chiral isomer 1 of compound 25] returned a DC50 in data set [1] below 0.02 µM. Besides, in data set [2] (setting [4]), the IC50 was above 40 µM. With `Cn1nc(C2CCC(=O)NC2=O)c2cccc(C#CCO[C@@H]3CCN(C[C@H]4CC[C@H](n5cc(NC(=O)c6cnn7ccc(N8CCO[C@@H](CO)C8)nc67)c(C(F)F)n5)CC4)C[C@@H]3F)c21` (single isomer, unassigned) [Chiral isomer 2 of compound 19], the DC50 in data set [1] was below 0.02 µM. Consider `COC[C@H]1CN(c2ccn3ncc(C(=O)Nc4cn([C@H]5CC[C@H](CN6CC[C@H](OCC#Cc7cccc8c(C9CCC(=O)NC9=O)nn(C)c78)[C@H](F)C6)CC5)nc4C(F)F)c3n2)CCO1` (single isomer, unassigned) [Chiral isomer 2 of compound 23], for which, in data set [1], the DC50 was below 0.02 µM. In addition, the IC50 in data set [2] (setting [4]) is above 40 µM.

In data set [1], `Cn1nc(C2CCC(=O)NC2=O)c2cccc(C#CCO[C@H]3CCN(C[C@H]4CC[C@H](n5cc(NC(=O)c6cnn7ccc(N8CCO[C@H](CO)C8)nc67)c(C(F)F)n5)CC4)C[C@H]3F)c21` (single isomer, unassigned) [Chiral isomer 2 of compound 25] registered a DC50 below 0.02 µM. The IC50 in data set [2] (setting [4]) is above 40 µM. On to `Cn1nc(C2CCC(=O)NC2=O)c2cccc(C#CCO[C@@H]3CCN(C[C@H]4CC[C@H](n5cc(NC(=O)c6cnn7ccc(N8CCO[C@@H](CO)C8)nc67)c(C(F)F)n5)CC4)C[C@@H]3F)c21` (single isomer, unassigned) [Trifluoroacetate salt of chiral isomer 2 of compound 19], for which the AUC(0-t) in data set [3] stood at 8300 ± 2850 ng·h/mL. Also, the IC50 in data set [2] (setting [4]) is above 40 µM. With `CN(C[C@H]1CC[C@H](n2cc(NC(=O)c3cnn4ccc(N5C[C@H]6C[C@@H]5CO6)nc34)c(C(F)F)n2)CC1)C1CCN(Cc2cccc3c(C4CCC(=O)NC4=O)nn(C)c23)CC1` (stereo partly shown) [Compound 1], the “Remaining IRAK4 protein IRAK4%” value in data set [1] was “B (10% < B ≤ 50%)”. As for `CCn1nc(C2CCC(=O)NC2=O)c2cccc(C#CCOC3CCN(C[C@H]4CC[C@H](n5cc(NC(=O)c6cnn7ccc(N8C[C@H]9C[C@@H]8CO9)nc67)c(C(F)F)n5)CC4)CC3)c21` (stereo partly shown) [Compound 6], the “Remaining IRAK4 protein IRAK4%” value in data set [1] was “A (A ≤ 10%)”. With `Cn1nc(C2CCC(=O)NC2=O)c2cccc(C#CCO[C@H]3CCN(C[C@H]4CC[C@H](n5cc(NC(=O)c6cnn7ccc(N8C[C@H]9C[C@@H]8CO9)nc67)c(C(F)F)n5)CC4)C[C@@H]3F)c21` (stereo partly shown) [Compound 12], the “Remaining IRAK4 protein IRAK4%” value in data set [1] is “B (10% < B ≤ 50%)”. For the same compound, the IC50 in data set [2] (setting [4]) is above 30 µM.

As to `Cn1nc(C2CCC(=O)NC2=O)c2cccc(C#CCO[C@@H]3CCN(C[C@H]4CC[C@H](n5cc(NC(=O)c6cnn7ccc(N8C[C@H]9C[C@@H]8CO9)nc67)c(C(F)F)n5)CC4)C[C@H]3F)c21` (stereo partly shown) [Compound 13], in data set [1], the “Remaining IRAK4 protein IRAK4%” value is listed as “B (10% < B ≤ 50%)”. Consider `O=C1CCC(c2nn(C3CC3)c3c(C#CCOC4CCN(C[C@H]5CC[C@H](n6cc(NC(=O)c7cnn8ccc(N9C[C@H]%10C[C@@H]9CO%10)nc78)c(C(F)F)n6)CC5)CC4)cccc23)C(=O)N1` (stereo partly shown) [Compound 16], for which the “Remaining IRAK4 protein IRAK4%” value in data set [1] is listed as “A (A ≤ 10%)”.

With `Cn1c(=O)n(C2CCC(=O)NC2=O)c2cccc(C#CCOC3CCN(C[C@H]4CC[C@H](n5cc(NC(=O)c6cnn7ccc(N8C[C@H]9C[C@@H]8CO9)nc67)c(C(F)F)n5)CC4)CC3)c21` (stereo partly shown) [Control compound 1, reference compound], the AUC(0-t) in data set [3] worked out at 2320 ± 146 ng·h/mL. This compound came in with an IC50 in data set [2] (IC50 for inhibitory effect on hERG potassium channel current) of 0.642 µM. Regarding `Cn1nc(C2CCC(=O)NC2=O)c2cccc(C#CCOC3CCN(C[C@H]4CC[C@H](n5cc(NC(=O)c6cnn7cc(F)c(N8C[C@H]9C[C@@H]8CO9)nc67)c(C(F)F)n5)CC4)CC3)c21` (stereo partly shown) [Trifluoroacetate salt of compound 15], in data set [1], the “Remaining IRAK4 protein IRAK4%” value is given as “B (10% < B ≤ 50%)”.

By DC50 is commonly meant the concentration giving 50% degradation. Lower therefore signals a more potent degrader. The IC50 is the midpoint of a concentration-inhibition curve.
